Experimental data as given in paper PMC5120670 (European journal of medicinal chemistry, 2016).

Experiments:
[1] = system: T. brucei (bloodstream form strain 427); test: T. brucei growth inhibition assay; type: cell-based, Trypanosoma brucei; details: for cellular activity improvement compared to 3: relative to compound 3
[2] = target: T1, T. brucei methionyl-tRNA synthetase (TbMetRS) (Trypanosoma brucei brucei, UniProt Q38C91); test: Enzyme inhibition assay; type: biochemical
T1 sequence (Q38C91 1-773): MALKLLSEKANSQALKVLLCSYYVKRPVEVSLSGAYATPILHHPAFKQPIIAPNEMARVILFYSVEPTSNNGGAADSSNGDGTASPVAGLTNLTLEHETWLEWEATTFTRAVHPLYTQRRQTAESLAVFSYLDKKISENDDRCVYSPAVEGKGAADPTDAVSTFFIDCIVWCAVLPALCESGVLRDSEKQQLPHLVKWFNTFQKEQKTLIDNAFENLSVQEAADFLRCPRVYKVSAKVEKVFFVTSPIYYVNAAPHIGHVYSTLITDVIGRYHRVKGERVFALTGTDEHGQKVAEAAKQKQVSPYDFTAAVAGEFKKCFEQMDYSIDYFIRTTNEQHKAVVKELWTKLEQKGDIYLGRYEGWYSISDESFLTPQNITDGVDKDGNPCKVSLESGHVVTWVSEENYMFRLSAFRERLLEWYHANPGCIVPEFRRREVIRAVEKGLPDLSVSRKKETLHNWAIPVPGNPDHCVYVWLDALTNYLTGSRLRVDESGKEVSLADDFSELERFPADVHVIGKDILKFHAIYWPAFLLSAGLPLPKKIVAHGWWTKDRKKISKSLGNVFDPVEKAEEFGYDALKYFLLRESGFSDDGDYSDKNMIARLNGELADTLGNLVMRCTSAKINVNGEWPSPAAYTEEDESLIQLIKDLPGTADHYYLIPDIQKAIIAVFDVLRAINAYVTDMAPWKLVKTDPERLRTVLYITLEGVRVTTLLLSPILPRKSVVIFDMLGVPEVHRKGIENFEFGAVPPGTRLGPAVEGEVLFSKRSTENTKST

PK studies in mice = type: in vivo; details: for AUC: mice, oral administration at 50 mg/kg
[3] = Distribution of compounds between mouse plasma and brain; type: in vivo; details: mice, 5 mg/kg IP, 60 min after injection
[4] = system: human lymphoblast cell line (CRL-8155); test: Mammalian cell growth inhibition assay, CRL-8155
[5] = system: hepatocellular carcinoma cell line (Hep G2); test: Mammalian cell growth inhibition assay, Hep G2; type: cell-based; details: Homo sapiens, HepG2, 48 h, read-out: Hep G2 EC50

SMILES: O=C(Cc1cc(Cl)cc(Cl)c1)N1CCCC(c2nc3cc(Cl)ccc3[nH]2)C1 (stereo not drawn) [Compound 6, 1-(3-(5-chloro-1H-benzo[d]imidazol-2-yl)piperidin-1-yl)-2-(3,5-dichlorophenyl) ethanone]
- cellular activity improvement compared to 3 [1]: approximately 5 fold

SMILES: O=C(Cc1cc(Cl)cc(Cl)c1)N1CCCC(c2nc3nc(Cl)ccc3[nH]2)C1 (stereo not drawn) [Compound 7, 1-(3-(5-chloro-1H-imidazo[4,5-b]pyridin-2-yl)piperidin-1-yl)-2-(3,5-dichlorophenyl)ethanone]
- cellular activity improvement compared to 3 [1]: approximately 5 fold
- IC50 [2]: < 50 nM

SMILES: Clc1cc(Cl)cc(CCN2CCCC(c3nc4nc(Cl)ccc4[nH]3)C2)c1 (stereo not drawn) [Compound 10, 5-chloro-2-(1-(3,5-dichlorophenethyl)piperidin-3-yl)-1H-imidazo[4,5-b]pyridine]
- decreased potency compared to 6 ([1]; relative to compound 6): around 3 fold

SMILES: Clc1cc(Cl)cc(CNC2CCCC(c3nc4nc(Cl)ccc4[nH]3)C2)c1 (stereo not drawn) [Compound 12, 3-(5-chloro-1H-imidazo[4,5-b]pyridin-2-yl)-N-(3,5-dichlorobenzyl) cyclohexanamine]
- lower EC50 compared to 6 ([1]; relative to compound 6): 4 fold

SMILES: Clc1cc(Cl)cc(CNC2CCCN(c3nc4nc(Cl)ccc4[nH]3)C2)c1 (stereo not drawn) [Compound 14, 1-(5-chloro-1H-imidazo[4,5-b]pyridin-2-yl)-N-(3,5-dichlorobenzyl)piperidin-3-amine]
- lower EC50 compared to compound 12 ([1]; relative to compound 12): ~ 4 fold
- IC50 [2]: < 50 nM

SMILES: Clc1cc(Cl)cc(CN[C@H]2CCCN(c3nc4nc(Cl)ccc4[nH]3)C2)c1 [Compound 16, (S)-1-(5-chloro-1H-imidazo[4,5-b]pyridin-2-yl)-N-(3,5-dichlorobenzyl) piperidin-3-amine]
- AUC (PK studies in mice): 6223 min*µ mol/L
- brain levels [3]: nearly undetectable
- lower EC50 compared to R-isomer 15 ([1]; relative to compound 15): > 25 fold
- IC50 [2]: < 50 nM

SMILES: Clc1cc(Cl)cc(CN[C@H]2CCN(c3nc4ccc(Cl)nc4[nH]3)C2)c1 [Compound 24, (S)-1-(5-chloro-3H-imidazo[4,5-b]pyridin-2-yl)-N-(3,5-dichlorobenzyl) pyrrolidin-3-amine]
- more potent than the R-isomer 23 ([1]; relative to compound 23): ~ 6 fold
- IC50 [2]: < 50 nM

SMILES: CN(CCNCc1cc(Cl)cc(Cl)c1)c1nc2nc(Cl)ccc2[nH]1 [Compound 31, N1-(5-chloro-1H-imidazo[4,5-b]pyridin-2-yl)-N2-(3,5-dichlorobenzyl)-N1-methylethane-1,2-diamine]
- AUC (PK studies in mice): 952 min*µ mol/L
- Cmax (PK studies in mice; mouse, whole blood, po, 50 mg/kg): 9.7 µM
- EC50 ([1]; Trypanosoma brucei, 48 h): 22 nM
- lower EC50 compared to compound 29 ([1]; relative to compound 29): ~ 3 fold
- EC50 ([4]; Homo sapiens, CRL8155, 48 h, read-out: CRL-8155 EC50): 22600 nM
- selectivity index ([4]; mammalian cells versus T. brucei): 1027
- EC50 [5]: 39200 nM
- IC50 [2]: < 50 nM
